“And” between values parts separate entries of the source, which are not always exact repeats. Equal entries are not always repeated.
Assays:
[1] = Phase 1 study: plasma pharmacokinetics of inhaled opelconazole in healthy volunteers; assay type: in vivo, human
Protocol: The study was conducted from February 2023 through June 2023 in accordance with the Declaration of Helsinki, Good Clinical Practice, and the International Conference on Harmonisation guidelines (South African National Clinical Trial Registry code: DOH-27-122022-5196). The study documents were approved by an Independent Ethics Committee. Study participants provided written informed consent prior to any study procedures.
Screening occurred within 28 days prior to the first dosing day (Figure 1). Participants were admitted to the study centre on Day −1 and were required to stay there until approximately 48 h after the morning dosing on Day 15. They returned for subsequent PK blood samples at approximately 72 (Day 18), 168 (Day 22) and 336 h (Day 29) after the last morning dosing. On Days 1 and 15, participants received oral midazolam 7.5 mg and oral caffeine 180 mg together after food ingestion.
Standard doses of midazolam and caffeine were used to characterize their PK profiles. The dose selected for opelconazole, 14.8 mg twice daily, is the dose utilized in the clinical development programme for the treatment and prevention of invasive pulmonary aspergillosis (IPA). Following 14 days of twice daily dosing, plasma concentrations were expected to be within 80% of steady-state concentrations and deemed appropriate to assess potential interactions with the probe substrates.
Study participants inhaled opelconazole 14.8 mg twice daily using the PARI LC SPRINT® jet nebuliser for 14 days, starting on Day 2 through Day 15. Morning doses of opelconazole on Day 2 and Day 15 were taken 30 min after food ingestion. Blood samples were taken for PK analyses for midazolam, metabolites of midazolam (1-OH-midazolam and 4-OH-midazolam) and caffeine on Days 1 and 15 at pre-dose (0 h), at 0.5, 1, 1.5, 2, 3, 4, 6, 8, 10, 12, 16, 24, 30, 36 and 48 h post-dose on Days 1 and 15. Blood samples were taken for PK analyses for opelconazole as follows: on Day 2 at pre-morning dose (0 h), at 0.5, 1, 2, 4, 6, 8, 12 and 24 h post-morning dose; on Day 15: at pre-morning-dose (0 h), at 0.5, 1, 2, 4, 6, 8, 10, 12, 24 (Day 16), 30 (Day 16), 36 (Day 16), 48 (Day 17), 72 (Day 18), 168 (Day 22) and 336 (Day 29) h post-morning-dosing.
Primary PK parameters assessed for midazolam and its metabolites (1-OH-midazolam, 4-OH-midazolam), caffeine and opelconazole were Cmax and AUC, from time zero to t, where t is the time of the last quantifiable concentration (AUC(0−t); i.e., AUC(0−12) and AUC(0−24)). Secondary PK parameters were AUC(0−∞), Tmax, apparent t1/2 and accumulation ratio (RO) of opelconazole only.

CYP3A4 = CYP3A4 (Homo sapiens, UniProt P08684); assay type: in vitro ADME; conditions: incubated with 0.01 and 0.1 µM opelconazole
Chain of CYP3A4 (P08684 whole entry): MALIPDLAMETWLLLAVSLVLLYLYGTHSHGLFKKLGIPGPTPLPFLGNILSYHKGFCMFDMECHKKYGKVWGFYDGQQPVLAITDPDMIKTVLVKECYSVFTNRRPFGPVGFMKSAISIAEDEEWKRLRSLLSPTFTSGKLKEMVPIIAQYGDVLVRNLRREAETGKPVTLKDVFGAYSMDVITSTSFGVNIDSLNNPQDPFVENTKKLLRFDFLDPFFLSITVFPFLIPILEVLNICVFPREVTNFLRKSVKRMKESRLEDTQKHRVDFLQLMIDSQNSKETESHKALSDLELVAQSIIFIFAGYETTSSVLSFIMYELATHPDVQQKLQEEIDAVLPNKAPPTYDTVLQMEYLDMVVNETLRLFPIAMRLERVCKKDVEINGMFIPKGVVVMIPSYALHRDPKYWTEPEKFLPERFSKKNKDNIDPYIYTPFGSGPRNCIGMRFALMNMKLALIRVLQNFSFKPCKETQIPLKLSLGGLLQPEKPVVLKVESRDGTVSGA
Protocol: The testing of opelconazole as a potential substrate of CYP1A2, 2B6, 2C8, 2C9, 2C19, 2D6 and 3A4 was determined in vitro using recombinant CYP enzymes. Two concentrations of opelconazole (0.01 and 0.1 µM) were tested with each of the seven CYPs.
The relative contributions of CYP3A4 and CYP2C9 were ∼75% and 25%, respectively, when incubated with 0.01 and 0.1 µM opelconazole.

CYP2B6 = experiment: CYP induction, mRNA endpoint, cryopreserved human hepatocytes; assay type: in vitro ADME; conditions: any of the three donors
Protocol: (§1) The hepatocyte cells were dosed with opelconazole (0.012, 0.03, 0.12, 0.3, 1.2 and 3 μM) and positive control compounds (omeprazole for CYP1A2 and rifampicin for CYP3A4).

[2] = test system: Aspergillus fumigatus clinical strains; set-up: method as in PMID 33340279; conditions: cited from earlier work
CYP1A2 = experiment: CYP induction, mRNA endpoint, cryopreserved human hepatocytes; conditions: for CYP1A2 mRNA increase: concentration-dependent, 72 h
Protocol: The potential for opelconazole to act as an inducer of CYP isoforms CYP1A2, CYP2B6 and CYP3A4 was assessed in vitro using an mRNA endpoint across three donors in cryopreserved human hepatocytes. A drug is interpreted as an inducer if: (1) it increases mRNA expression of a CYP enzyme in a concentration-dependent manner and (2) the fold change of CYP mRNA expression relative to vehicle control is ≥2-fold at the drug’s expected hepatic concentrations.[23]
A cytotoxicity assessment using MTT was performed in one of the three donors used for the induction studies prior to dosing.

[3] = test system: cryopreserved human hepatocytes; experiment: MTT cytotoxicity assessment in hepatocytes; assay type: cell-based; conditions: up to 3 μM, one donor
Protocol: as §1

[4] = Day 2, inhaled 14.8 mg twice daily
[5] = Day 15, after 14 days inhaled 14.8 mg twice daily

Cc1cc(N2CCN(c3ccc(C(=O)Nc4ccc(F)cc4)cc3)CC2)ccc1OC[C@@H]1CO[C@@](Cn2cncn2)(c2ccc(F)cc2F)C1 [opelconazole]
AUC(0–12 h), geometric mean (CV%) ([1]; Day 2 (first dosing day), inhaled 14.8 mg twice daily): 7.81 (27.8) h·ng/mL | AUC(0-t), geometric mean (CV%) [1, 4]: 19.9 (29.4) h·ng/mL | AUC(0–24 h), geometric mean (CV%) [1, 4]: 19.6 (29.4) h·ng/mL | Cmax, geometric mean (CV%) [1, 4]: 0.91 (29.3) ng/mL | Tmax, median (range) [1, 4]: 6.17 (2.17, 12.1) h | AUC(0-t), geometric mean (CV%) [1, 5]: 1270 (45.8) h·ng/mL | AUC(0–12 h), geometric mean (CV%) [1, 5]: 69.8 (45.4) h·ng/mL | AUC(0–24 h), geometric mean (CV%) [1, 5]: 136 (46.7) h·ng/mL | Cmax, geometric mean (CV%) [1, 5]: 7.07 (47.2) ng/mL | Tmax, median (range) [1, 5]: 4.17 (0.67, 48.0) h | t½, geometric mean (CV%) [1, 5]: 188 (21.4) h | AUC(0−∞), geometric mean (CV%) ([1]; Day 15, inhaled 14.8 mg twice daily, n=2): 1720 (31.2) h·ng/mL | RO (accumulation ratio) AUC(0–12 h) Day 15/Day 2, geometric mean (CV%) ([1]; inhaled 14.8 mg twice daily): 8.93 (38.4) | RO (accumulation ratio) AUC(0–24 h) Day 15/Day 2, geometric mean (CV%) ([1]; inhaled 14.8 mg twice daily): 6.97 (35.8) | RO (accumulation ratio) Cmax Day 15/Day 2, geometric mean (CV%) ([1]; inhaled 14.8 mg twice daily): 7.77 (46.7) | observed RO (Day 15/Day 2) for AUC0–12h ([1]; inhaled 14.8 mg twice daily): 8.9 fold | observed RO (Day 15/Day 2) for Cmax ([1]; inhaled 14.8 mg twice daily): 7.8 fold | Cmax ([1]; multiple inhaled doses, clinical dosing, read-out: systemic Cmax at steady state): 10 nM and ≤ 10 nM | relative contribution of CYP3A4 to metabolism of opelconazole (CYP3A4): ~75% | CYP2B6 mRNA expression (CYP2B6): did not increase mRNA expression | minimal inhibitory concentration required to inhibit 90% of clinical strains [2]: 1 µg/mL | opelconazole concentration giving threshold induction outcome (CYP1A2; CYP1A2, in vitro): 0.3 μM and 204 ng/mL | CYP1A2 mRNA increase (CYP1A2; donor 1, opelconazole ≥0.3 μM): 2.72 fold | CYP1A2 mRNA increase (CYP1A2; donor 2, opelconazole ≥0.3 μM): 1.97 fold | cytotoxicity (MTT) [3]: no cytotoxicity was observed

Reference: publication PMC12670164, “In vitro and clinical data demonstrate negligible risk of drug–drug interactions with opelconazole, a novel inhaled antifungal agent” (Journal of Antimicrobial Chemotherapy, 2025)
